≈ marks a conversion by molar mass, not a printed value.
How the values were obtained:
[1] = target: T1, Torpedo californica AChE (TcAChE) (Tetronarce californica, UniProt P04058); assay: biochemical; settings: mean ± SEM of three experiments
T1 construct: purchased Sigma-Aldrich Corporation
Experimental: (§1) The enzyme activity was measured in vitro via a modified spectrophotometric method developed by Ellman et al.. Acetylthiocholine iodide (ATCh) and butyrylthiocholine chloride (BTCh) were used as substrates for the AChE and BChE enzymes, respectively. Ellman reagent, i.e., 5,5-dithiobis (2-nitro) benzoic acid (DTNB), was used to produce the chromogenic indicator for the measurement of the ChE activity using a SpectraMax microplate spectrophotometer (Molecular Devices, CA, USA), as reported previously.
(§2) The IC50 values were calculated using the EZ-Fit program (Perrella Scientific Inc., Amherst, MA, USA). Lineweaver–Burk plots, Dixon plots, and their secondary replots were used to observe the effects of the compound on the values of Km and Vmax. Dixon plots, Lineweaver–Burk plots, and the secondary replots of Lineweaver–Burk plots were used to determine Ki values using initial velocities. […] The graphical analysis of the Dixon plots, Lineweaver–Burk plots, and their secondary plots was used to determine the inhibition type.

BChE (horse serum) = target: T2, BChE (horse serum) (Equus caballus, UniProt P81908); assay: biochemical; type: biochemical
T2 construct: purchased Sigma-Aldrich Corporation; host or cells: horse serum
T2 sequence (P81908 whole entry): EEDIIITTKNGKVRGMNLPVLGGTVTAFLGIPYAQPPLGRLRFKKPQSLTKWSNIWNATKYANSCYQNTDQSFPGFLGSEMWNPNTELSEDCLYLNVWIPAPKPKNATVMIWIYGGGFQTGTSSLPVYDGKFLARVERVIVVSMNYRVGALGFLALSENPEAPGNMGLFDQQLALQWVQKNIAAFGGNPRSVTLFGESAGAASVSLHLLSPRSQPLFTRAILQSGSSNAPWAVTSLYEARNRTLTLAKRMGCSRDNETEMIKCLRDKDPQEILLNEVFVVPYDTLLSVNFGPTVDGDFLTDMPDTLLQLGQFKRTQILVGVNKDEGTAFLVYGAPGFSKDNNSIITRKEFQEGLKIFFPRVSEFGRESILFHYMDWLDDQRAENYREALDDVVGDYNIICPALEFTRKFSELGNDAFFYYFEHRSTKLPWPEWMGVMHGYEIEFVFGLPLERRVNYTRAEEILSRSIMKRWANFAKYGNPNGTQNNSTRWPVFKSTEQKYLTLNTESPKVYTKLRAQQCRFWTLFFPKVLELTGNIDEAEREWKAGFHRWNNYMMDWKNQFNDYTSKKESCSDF
Experimental: as §1, §2

[2] = tested on: voltage-dependent Ca^2+ channels; assay: Ca2+ concentration-response curves in Ca2+-free medium, rabbit jejunum; settings: Ca^2+-free medium, Sarcorucinine-D 10–30 µg/mL, verapamil 0.05–0.5 µg/mL
Experimental: Another set of confirmatory experiments was also performed to be sure of any potential CCB activity. For this, the regular Tyrode’s physiological salt solution in which the tissues were originally immersed was removed. The baths were filled with a Ca^2+–free Tyrode’s solution with EDTA (0.1 mM). The tissues were left in this solution for half an hour. Later, another replacement was carried out using K^+-rich and Ca^2+-free Tyrode’s solution. The tissues were again left to stabilize for half an hour, and then, the control concentration–response curves of Ca^2+ were constructed and recorded. These control Ca^2+ concentration–response curves were duplicated after pretreatment of the tissues for one hour with different concentrations of Sarcorucinine-D. Any possible CCB effect of Sarcorucinine-D would tend to displace the Ca^2+ concentration–response curves to the right-hand side. The effects of Sarcorucinine-D were compared to those of a standard CCB, verapamil.

MTT cytotoxicity test = settings: bovine, MDBK adherent cells
Experimental: (§3) The MTT (3-[4,5-dimethylthazol-2-yl]-2,5-diphenyltetrazolium bromide) test was performed using MDBK adherent cells.

MDBK cells = assay: MTT cytotoxicity test; settings: MDBK, MTT, concentration range 0.019–1.56 μg/mL, 72 h
Experimental: as §3

phosphodiesterase = tested on: phosphodiesterase
Experimental: (§4) To test the selectivity of the compound, Sarcorucinine-D was also tested for the inhibition of several other enzymes such as phosphodiesterase, α-glucosidase, β-glucuronidase, and urease enzymes. The assays of these enzymes are reported elsewhere.

α-glucosidase = tested on: α-glucosidase
Experimental: as §4

urease = assay: Selectivity screen: urease inhibition; type: biochemical
β-glucuronidase = assay: Selectivity screen: β-glucuronidase inhibition; type: biochemical

T1 sequence (P04058 22-586): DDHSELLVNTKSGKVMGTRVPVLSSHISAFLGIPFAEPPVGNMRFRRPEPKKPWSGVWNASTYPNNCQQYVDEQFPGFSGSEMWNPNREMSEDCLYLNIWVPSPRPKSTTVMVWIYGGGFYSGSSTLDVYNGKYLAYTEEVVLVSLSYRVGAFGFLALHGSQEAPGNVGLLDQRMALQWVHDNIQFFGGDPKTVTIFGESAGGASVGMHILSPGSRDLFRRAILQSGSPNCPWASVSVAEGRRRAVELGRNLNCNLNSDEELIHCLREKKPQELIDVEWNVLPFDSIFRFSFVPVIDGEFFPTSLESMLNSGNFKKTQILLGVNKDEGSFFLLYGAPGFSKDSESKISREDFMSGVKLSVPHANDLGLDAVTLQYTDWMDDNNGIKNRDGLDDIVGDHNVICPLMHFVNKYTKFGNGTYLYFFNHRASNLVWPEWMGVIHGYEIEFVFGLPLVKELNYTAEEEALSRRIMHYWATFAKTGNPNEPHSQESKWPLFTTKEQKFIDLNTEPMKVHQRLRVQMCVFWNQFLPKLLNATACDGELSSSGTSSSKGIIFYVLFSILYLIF

Compound	Ki ([1]; from Dixon plot, Lineweaver–Burk plot and secondary replots, read-out: Acetylcholinesterase Ki)	IC50 ([1]; read-out: Acetylcholinesterase IC50)	IC50 (BChE (horse serum))	Ki (BChE (horse serum))	Selectivity toward BChE over AChE (BChE (horse serum); from the data of Table 1)	Effect on CaCl2 concentration–response curves [2]	IC50 at 72 h (MTT cytotoxicity test)	Cytotoxic effect at low concentrations (MDBK cells)	Selectivity screen result, phosphodiesterase (phosphodiesterase)	Selectivity screen result, α-glucosidase (α-glucosidase)	Selectivity screen result, urease (urease)	Selectivity screen result, β-glucuronidase (β-glucuronidase)
CC(C1CCC2C3CCC4CC(O)CCC4(C)C3CCC21C)N(C)C (stereo not shown) [Sarcorucinine-D]	103 ± 6.67 µM	42.9 ± 3.13 µM	8.87 ± 0.56 µM	4.66 ± 0.3 µM	approximately 22 times	displaced the CaCl2 curves to the right	2.24 µg/mL (≈ 6.44 µM)	No cytotoxic effect	selective ChE inhibitor	selective ChE inhibitor	selective ChE inhibitor	selective ChE inhibitor
COc1ccc(CCN(C)CCCC(C#N)(c2ccc(OC)c(OC)c2)C(C)C)cc1OC (stereo not shown) [verapamil, reference compound]						displaced the CaCl2 curves to the right						

— article PMC9182202 (Molecules, 2022)
